Reference: PubChem BioAssay AID1053178 (The Scripps Research Institute Molecular Screening Center, 2014)
The source made the active and inactive calls.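 Rule for the calls: active = IC50 at or below 10 µM; inactive = IC50 above 10 µM.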

target: Trace amine-associated receptor 1 (Homo sapiens) (UniProt Q96RJ0); experiment: blockers of human TAAR1 receptor – cell-based, fluorescence, MDRUN002, late-stage follow-up (AID 1053178); conditions: CHO TAAR1 cells, cAMP TR-FRET, PEA-stimulated antagonism
Sequence (Q96RJ0 whole entry, looked up): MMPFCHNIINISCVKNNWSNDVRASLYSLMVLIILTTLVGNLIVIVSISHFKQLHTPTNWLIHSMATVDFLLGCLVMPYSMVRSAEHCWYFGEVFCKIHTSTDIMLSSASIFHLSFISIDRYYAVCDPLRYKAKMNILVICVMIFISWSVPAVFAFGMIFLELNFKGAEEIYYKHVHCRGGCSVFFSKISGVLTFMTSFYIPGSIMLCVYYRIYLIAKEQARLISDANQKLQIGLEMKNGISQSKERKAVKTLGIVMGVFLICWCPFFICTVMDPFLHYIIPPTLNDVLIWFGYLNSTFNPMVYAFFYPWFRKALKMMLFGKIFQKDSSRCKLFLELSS

Compound | IC50
N#Cc1c(C(F)(F)F)cc(-c2ccc(Cl)cc2)nc1SCC(=O)N1CCCC1 | 0.179 µM
Cc1ccc(C(=O)CCN2CCC(c3ccccc3)C2)cc1 (configuration not stated) | > 37.4 µM (inactive)
N#Cc1c(C(F)(F)F)cc(-c2ccc(Cl)cc2)nc1SCC(=O)Nc1ncccn1 | 0.00433 µM
CC(CN1CCCC1Cc1ccccc1)C(=O)c1ccc2c(c1)OCCO2 (configuration not stated) | > 37.4 µM (inactive)
COc1cc(C(=O)CCN2CCC(c3ccccc3)C2)cc(OC)c1OC (configuration not stated) | > 37.4 µM (inactive)
N#Cc1c(C(F)(F)F)cc(-c2ccc(Cl)cc2)nc1SCC(=O)N1CCCCCC1 | inactive
O=C(CCN1CCC(c2ccccc2)C1)c1ccccc1 (configuration not stated) | > 37.4 µM (inactive)
